Measured values: PMC4229968, “The Inhibition of the Components from Shengmai Injection towards UDP-Glucuronosyltransferase” (Evidence-based Complementary and Alternative Medicine : eCAM, 2014)
Like-named read-outs stand apart in the source and are kept apart here.

Tests used:
Type in all cases: in vitro ADME
UGT1A3 = biological target: T1, UGT1A3 (Homo sapiens, UniProt P35503); test: Recombinant UGT1A3-catalyzed 4-MU glucuronidation inhibition; settings: pH 7.4, probe 4-methylumbelliferone (4-MU), UGT1A3, 100 μM of compound, 4-MU substrate, read-out: residual activity
T1 construct: purchased BD Gentest Corp. (Woburn, MA, USA); host or cells: baculovirus-infected insect cells
T1 sequence (P35503 29-534): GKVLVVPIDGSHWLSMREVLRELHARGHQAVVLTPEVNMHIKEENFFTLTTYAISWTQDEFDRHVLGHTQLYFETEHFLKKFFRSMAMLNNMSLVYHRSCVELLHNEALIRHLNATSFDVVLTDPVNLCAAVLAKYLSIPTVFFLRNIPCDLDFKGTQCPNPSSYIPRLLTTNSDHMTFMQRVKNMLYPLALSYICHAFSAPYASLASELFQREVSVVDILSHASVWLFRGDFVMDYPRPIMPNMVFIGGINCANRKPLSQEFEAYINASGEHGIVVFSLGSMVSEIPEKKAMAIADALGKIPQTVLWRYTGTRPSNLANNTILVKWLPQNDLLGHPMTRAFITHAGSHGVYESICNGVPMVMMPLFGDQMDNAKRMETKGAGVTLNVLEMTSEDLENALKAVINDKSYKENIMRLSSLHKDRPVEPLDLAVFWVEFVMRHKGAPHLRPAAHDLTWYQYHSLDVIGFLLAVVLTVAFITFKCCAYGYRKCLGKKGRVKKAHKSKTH
Text: (§1) 4-Methylumbelliferone (4-MU), 4-methylumbelliferone-β-D-glucuronide (4-MUG), Tris-HCl, 7-hydroxycoumarin, and uridine-5′-diphosphoglucuronic acid (UDPGA) (trisodium salt) were purchased from Sigma-Aldrich (St. Louis, MO). Recombinant human UGT isoforms (UGT1A1, UGT1A3, UGT1A4, UGT1A6, UGT1A7, UGT1A8, UGT1A9, UGT1A10, UGT2B4, UGT2B7, and UGT2B15) expressed in baculovirus-infected insect cells were obtained from BD Gentest Corp. (Woburn, MA, USA). Ophiopogonin D (OD), ophiopogonin D′ (OD′), methylophiopogonanone A (MA), methylophiopogonanone B (MB), and ruscorectal (RU) were purchased from Sichuan Weikeqi Biotechnology Company (Chengdu, Sichuan, China). The purity of these compounds was above 95%. All other reagents were of HPLC grade or of the highest grade commercially available.
(§2) 4-MU, the nonspecific probe substrate for all the UGT isoforms except UGT1A4, was used in the present study to initially screen the inhibition potential of maidong's components towards UGT isoforms as previously reported. In brief, the incubation system (total volume = 200 μL) consisted of recombinant UGTs, 5 mM UDPGA, 5 mM MgCl2, 50 mM Tris-HCl (pH = 7.4), and 4-MU in the absence or presence of different concentrations of maidong's components. The compounds were dissolved in DMSO, and the final concentration of DMSO was below 0.5% (v/v). The used incubation time and protein concentration were previously determined to ensure the reaction rate within the linear range. The 4-MU concentration was equal to known K m or S 50 values for each UGT isoform. After 5 min preincubation at 37°C, the incubation reaction was initiated via adding UDPGA to the mixture system. The reactions were quenched by adding 100 μL acetonitrile with 7-hydroxycoumarin (100 μM) as internal standard. Centrifuged at 20000 ×g for 10 min, an aliquot of supernatant was transferred to an autoinjector vial for HPLC analysis. The HPLC system (Shimadzu, Kyoto, Japan) contained a SCL-10A system controller, two LC-10AT pumps, a SIL-10A autoinjector, and a SPD-10AVP UV detector. Chromatographic separation was carried out using a C18 column (4.6 × 200 mm, 5 μm, Kromasil) at a flow rate of 1 mL/min and UV detector at 316 nm. The mobile phase consisted of acetonitrile (A) and H2O containing 0.5% (v/v) formic acid (B). The following gradient condition was used: 0–15 min, 95–40% B; 15–20 min, 10% B; 20–30 min, 95% B.

UGT1A6 = biological target: T2, UGT1A6 (Homo sapiens, UniProt P19224); test: Recombinant UGT1A6-catalyzed 4-MU glucuronidation inhibition; settings: for inhibition type: UGT1A6, Dixon and Lineweaver-Burk plots; for activity at 100 µM / inhibition at 100 µM: human, pH 7.4, probe 4-methylumbelliferone (4-MU); for activity at 100 µM: UGT1A6, 100 μM of compound, 4-MU substrate, read-out: residual activity; for inhibition at 100 µM: UGT1A6, at 100 μM, read-out: inhibition percent
T2 construct: purchased BD Gentest Corp. (Woburn, MA, USA); host or cells: baculovirus-infected insect cells
T2 sequence (P19224 27-532): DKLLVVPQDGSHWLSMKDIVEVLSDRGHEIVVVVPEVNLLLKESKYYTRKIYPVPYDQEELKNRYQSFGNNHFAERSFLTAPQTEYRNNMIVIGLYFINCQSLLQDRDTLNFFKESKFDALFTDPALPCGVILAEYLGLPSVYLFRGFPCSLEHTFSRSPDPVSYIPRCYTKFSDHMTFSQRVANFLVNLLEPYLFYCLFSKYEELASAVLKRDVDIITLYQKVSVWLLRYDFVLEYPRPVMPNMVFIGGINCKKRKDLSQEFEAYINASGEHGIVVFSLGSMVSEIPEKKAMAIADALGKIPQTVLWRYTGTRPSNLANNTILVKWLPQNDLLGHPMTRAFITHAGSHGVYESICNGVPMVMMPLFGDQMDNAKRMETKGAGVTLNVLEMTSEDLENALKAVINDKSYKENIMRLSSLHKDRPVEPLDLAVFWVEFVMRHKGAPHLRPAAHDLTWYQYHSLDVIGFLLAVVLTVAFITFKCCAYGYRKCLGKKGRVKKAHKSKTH
Text: as §1, §2
(§3) To determine the inhibition kinetic type and parameters (K i), the reaction velocity (V) was determined at multiple concentrations of maidong's components and 4-MU (or TFP). Dixon plot and Lineweaver-Burk plot were used to fit the data. The inhibition kinetic type was evaluated through determining the intersection point in the Dixon and Lineweaver-Burk plots.
(§4) K m value is the substrate concentration in which the velocity reached half of the maximum velocity (V max) of the reaction. K i value is the inhibition constant.

UGT1A10 = biological target: T3, UGT1A10 (Homo sapiens, UniProt Q9HAW8); test: Recombinant UGT1A10-catalyzed 4-MU glucuronidation inhibition; settings: for activity at 100 µM: UGT1A10, 100 μM of compound, 4-MU substrate, read-out: residual activity
T3 construct: purchased BD Gentest Corp. (Woburn, MA, USA); host or cells: baculovirus-infected insect cells
T3 sequence (Q9HAW8 26-530): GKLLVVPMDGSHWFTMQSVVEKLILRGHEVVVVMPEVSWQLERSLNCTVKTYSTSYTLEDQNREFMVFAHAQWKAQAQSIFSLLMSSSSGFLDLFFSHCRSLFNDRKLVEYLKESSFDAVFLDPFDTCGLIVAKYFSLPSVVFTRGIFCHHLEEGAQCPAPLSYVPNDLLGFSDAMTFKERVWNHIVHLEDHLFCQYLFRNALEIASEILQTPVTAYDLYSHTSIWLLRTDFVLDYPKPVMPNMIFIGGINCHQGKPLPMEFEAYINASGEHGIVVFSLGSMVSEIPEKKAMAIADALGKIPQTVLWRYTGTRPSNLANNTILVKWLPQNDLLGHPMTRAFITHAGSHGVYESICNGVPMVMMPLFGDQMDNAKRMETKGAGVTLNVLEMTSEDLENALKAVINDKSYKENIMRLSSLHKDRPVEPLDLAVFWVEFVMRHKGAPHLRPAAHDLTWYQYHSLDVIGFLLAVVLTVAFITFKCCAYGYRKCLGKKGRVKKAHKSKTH
Text: as §1, §2, §3, §4

[1] = human, pH 7.4, probe 4-methylumbelliferone (4-MU)

SMILES	activity at 100 µM (UGT1A3) [%]	Ki (UGT1A6) [µM]	inhibition type (UGT1A6)	activity at 100 µM (UGT1A6) [%]	inhibition at 100 µM (UGT1A6) [%]	activity at 100 µM (UGT1A10; [1]) [%]	Ki (UGT1A6; UGT1A6-catalyzed 4-MU glucuronidation, read-out: inhibition kinetic parameter (Ki)) [µM]	Ki (UGT1A10; UGT1A10-catalyzed 4-MU glucuronidation, read-out: inhibition kinetic parameter (Ki)) [µM]	inhibition type (UGT1A10; UGT1A10, Dixon and Lineweaver-Burk plots)	inhibition at 100 µM (UGT1A10; human, pH 7.4, probe 4-methylumbelliferone (4-MU), UGT1A10, at 100 μM, read-out: inhibition percent) [%]
C[C@@H]1CC[C@@]2(OC1)O[C@H]1C[C@H]3[C@@H]4CC=C5C[C@@H](O)C[C@@H](O[C@@H]6O[C@H](C)[C@H](O)[C@H](O[C@@H]7OC[C@@H](O)[C@H](O)[C@H]7O)[C@H]6O[C@@H]6O[C@@H](C)[C@H](O)[C@@H](O)[C@H]6O)[C@]5(C)[C@H]4CC[C@]3(C)[C@H]1[C@@H]2C [OD, ophiopogonin D]	40.7 ± 0.3	20.6	noncompetitively inhibited	12.8 ± 3.1	87.2	26.5 ± 1.5	–	–	–	–
C[C@@H]1CC[C@@]2(OC1)O[C@H]1C[C@H]3[C@@H]4CC=C5C[C@@H](O[C@@H]6O[C@H](CO)[C@@H](O)[C@H](O[C@@H]7OC[C@@H](O)[C@H](O)[C@H]7O)[C@H]6O[C@@H]6O[C@@H](C)[C@H](O)[C@@H](O)[C@H]6O)CC[C@]5(C)[C@H]4CC[C@]3(C)[C@H]1[C@@H]2C [OD′, ophiopogonin D′]	36.5 ± 2.5	–	noncompetitively inhibited	12.1 ± 1.9	87.9	19.8 ± 3.2	5.3	9	noncompetitively inhibited	80.2
Cc1c(O)c(C)c2c(c1O)C(=O)[C@H](Cc1ccc3c(c1)OCO3)CO2 [MA, methylophiopogonanone A]	35.5 ± 6.1	–	–	67 ± 1.7	–	70 ± 9.3	–	–	–	–
COc1ccc(C[C@@H]2COc3c(C)c(O)c(C)c(O)c3C2=O)cc1 [MB, methylophiopogonanone B]	84.2 ± 22.8	–	–	65.3 ± 2	–	96.9 ± 7.3	–	–	–	–
CC1CCC2(OC1)OC1CC3C4CC=C5CC(O)CC(O)C5(C)C4CCC3(C)C1C2C (stereo not drawn) [RU, ruscorectal]	37.2 ± 18.2	–	–	65.9 ± 11.6	–	82 ± 5.2	–	–	–	–
